Reference: patent US20130004424A1, “METHODS FOR DETERMINING AGENTS TARGETING MENA ISOFORMS AND USES THEREOF FOR DIAGNOSIS AND TREATMENT OF METASTATIC TUMORS” (priority 2010, published 2013)

Assays:
Mena^INV cells [1] = settings: both in vitro and in vivo; cited from earlier work
Mena^INV cells [2] = assay: in vivo invasion assay, collection needle containing EGF and erlotinib; settings: Mena^INV cells vs MTLn3-EGFP control cells; collection needle contained both EGF and erlotinib
Text: (B) Graphic of in vivo assay with needle collection. Primary tumor may be xenograft.
Collection needle contained both EGF and erlotinib. MTLn3-EGFP cells are control. **p<0.01, ***p<0.001.
Since cells expressing Mena^+ or Mena^INV/+ will move up an EGF gradient, when the cells expressing Mena^+ or Mena^INV/+ are in vivo, the cells expressing Mena^+ or Mena^INV/+ will move up the imposed EGF gradient and can be needle collected. If the putative agent does in fact inhibit Mena^+ or Mena^INV/+, the sensitivity of cells expressing Mena^+ or Mena^INV/+ drops and fewer cells will move up the EGF gradient.

For `C#Cc1cccc(Nc2ncnc3cc(OCCOC)c(OCCOC)cc23)c1` [erlotinib], the “resistance of cells to EGFR inhibitor” value (Mena^INV cells [1]) is listed as “exhibit resistance” and the “sensitivity of in vivo invasion to inhibition by erlotinib” value (Mena^INV cells [2]) is listed as “less sensitive to inhibition”.
